The source of these data is PubChem BioAssay AID844 (SRMLSC, 2007).

The structures appear in SMILES notation. pEC50: −log10 of the molar value. Activity calls are given as the source filed them. How the calls were made is not given here.

In general, pEC50 refers to the EC50 on a negative log10 scale, so that one unit is a factor of ten.

This experiment concerns MRP1 cells, doxorubicin viability shift, 10 uM compound. Nature of the experiment: doxorubicin EC50 increase in MRP-1 cells, dose response, cell-based, doxorubicin EC50 shift (AID 844). The settings on record: for pEC50: measured here: doxorubicin EC50 with compound.

Turning to `COc1ccc(OCc2nnc(SCC(=O)N3c4ccccc4Sc4ccc(Cl)cc43)o2)cc1`, the fold increase in Dox EC50 is 1.1 (inactive) and the negative-log EC50 (pEC50) is 5.23.
Take `Cc1nc2ccccc2c(=O)n1/N=C/c1c(O)ccc2oc3c(c12)CCCC3`: the fold increase in Dox EC50 is 0.28 (inactive) and the pEC50 was 5.82.
For `O=C(COc1ccc2oc3c(c2c1)CCCC3)Nc1ccccn1`, the fold increase in Dox EC50 is 1.27 (inactive) and the pEC50 is 5.16.
For `Cc1ccc(N/N=C(\C#N)C(=N)N2CCOCC2)cc1`, the fold increase in Dox EC50 was 0.92 (inactive) and the pEC50 was 5.31.
`C/C(=N\NC(=O)c1ccc(Cn2cc([N+](=O)[O-])cn2)o1)c1cccc(NC(=O)c2cccnc2)c1`: the fold increase in Dox EC50 is 0.73 (inactive) and the negative logarithm of the EC50 (pEC50) was 5.41.
Consider `O=C1CC(c2ccccc2)c2cc(O)ccc2O1` (centres undefined), for which the fold increase in Dox EC50 is 0.99 (inactive) and the pEC50 was 5.27.
`COc1ccc(-c2nn(-c3ccccc3)cc2C(=O)Nc2nc(CC(C)=O)ns2)cc1`: the fold increase in Dox EC50 was 0.99 (inactive) and the pEC50 is 5.27.
As for `COc1ccc(Cl)cc1C(=O)Nc1ccc2c(c1)OCO2`, the fold increase in Dox EC50 was 0.66 (inactive) and the pEC50 was 5.45.
Consider `Cc1nc2cc(-c3ccc(Cl)cc3)nn2c(C)c1CCC(=O)NC(C)c1ccc2c(c1)OCCO2` (centres undefined), for which the fold increase in Dox EC50 was 0.52 (inactive) and the pEC50 was 5.55.
In the case of `C/C(=N/NC(=O)CSc1ccccn1)c1ccc([N+](=O)[O-])cc1`, the fold increase in Dox EC50 is 0.77 (inactive) and the pEC50 is 5.38.
Consider `O=C(N/N=C/c1ccccn1)c1cc(-c2ccc3ccccc3c2)n[nH]1`, for which the fold increase in Dox EC50 was 0.75 (inactive) and the pEC50 was 5.39.
In the case of `COc1ccc(-n2ncc3c(=O)n(CC(=O)N4c5ccccc5CC4C)cnc32)cc1` (centres undefined), the fold increase in Dox EC50 is 0.82 (inactive) and the pEC50 is 5.35.
`COC(=O)N/N=C/c1ccc(-c2cc(Cl)cc(Cl)c2)o1`: the fold increase in Dox EC50 was 1.06 (inactive) and the pEC50 was 5.24.
As for `Cc1ccc(/C=C2\SC(=S)N(CCC(=O)NNC(=O)c3cccnc3)C2=O)cc1`, the fold increase in Dox EC50 is 0.91 (inactive) and the pEC50 is 5.31.
As for `CCCCc1nnc(NC(=O)CSc2nc(=O)cc(N)n2-c2cccc(C)c2)s1`, the fold increase in Dox EC50 is 1.31 (inactive) and the pEC50 is 5.15.
For `CC(=O)OCC(=O)[C@@]1(O)[C@H](C)C[C@H]2[C@@H]3CCC4=CC(=O)C=C[C@]4(C)[C@@]3(F)[C@@H](O)C[C@@]21C` the same measures were 1 (inactive) and 5.27.
`CCOC(=O)N1CCN(c2nc(-c3cccc(OC)c3)cc(C(F)(F)F)n2)CC1`: the fold increase in Dox EC50 was 1.11 (inactive) and the pEC50 was 5.22.
For the molecule `CCOC(=S)NC(=O)c1sc2ccccc2c1Cl`, the fold increase in Dox EC50 was 1.32 (inactive) and the pEC50 was 5.15.
Take `COC(=O)c1cnn(-c2cc(Oc3ccccc3)ncn2)c1N`: the fold increase in Dox EC50 was 0.76 (inactive) and the pEC50 is 5.39.
As for `COc1cccc(/C=N\NC(=O)C2=NNC(=O)C2C)c1O` (centres undefined), the fold increase in Dox EC50 is 1.2 (inactive) and the pEC50 was 5.19.
The matching figures for `CC1(C)O[C@@H]2C[C@H]3[C@@H]4CCC5=CC(=O)C=C[C@]5(C)[C@@]4(F)[C@@H](O)C[C@]3(C)[C@]2(C(=O)CO)O1`: 0.62 (inactive) and 5.48.
On to `O=C(NCc1ccc(Cl)cc1)C(=O)NCC(c1ccco1)N1CCOCC1` (centres undefined), for which the fold increase in Dox EC50 was 1.25 (inactive) and the pEC50 is 5.17.
Regarding `CC(C)c1ccc(CNc2cc(N3CCCC3)ccc2[N+](=O)[O-])cc1`, the fold increase in Dox EC50 was 0.81 (inactive) and the pEC50 was 5.36.
`COc1cccc(Nc2ncc(C(=O)O)c3ccccc23)c1`: the fold increase in Dox EC50 was 0.56 (inactive) and the pEC50 is 5.52.
The matching figures for `N/C(=N\N=C\c1ccc2c(c1)OCO2)c1nonc1N`: 0.88 (inactive) and 5.32.
Regarding `COc1ccc(C(=O)NCc2ccccc2)cc1S(=O)(=O)N1CCCc2ccccc21`, the fold increase in Dox EC50 is 0.56 (inactive) and the pEC50 was 5.52.
Turning to `Cc1cccc(-n2c(SCC(=O)Nc3ncc(Cl)cc3Cl)nc3ccccc32)c1`, the fold increase in Dox EC50 was 0.81 (inactive) and the pEC50 was 5.36.
For the molecule `O=C1N=C(c2ccccc2)S/C1=C\c1cccs1`, the fold increase in Dox EC50 is 1.2 (inactive) and the pEC50 was 5.19.
Consider `Cc1csc(C(C#N)C(=O)c2cc3ccccc3o2)n1` (centres undefined), for which the fold increase in Dox EC50 was 1.19 (inactive) and the pEC50 is 5.19.
Take `CCN(CC)CCN(Cc1cc2cc(C)cc(C)c2[nH]c1=O)C(=S)NCc1ccco1`: the fold increase in Dox EC50 is 0.19 (inactive) and the pEC50 was 5.99.
For `O=C(NNC(=O)c1cccnc1)Nc1cccc2ccccc12`, the fold increase in Dox EC50 is 0.66 (inactive) and the pEC50 is 5.45.
For `Cc1nnc(NC(=O)c2ccccc2Br)s1`, the fold increase in Dox EC50 was 1.05 (inactive) and the pEC50 was 5.24.
For the molecule `CC1(C)Cc2c(sc3nnn(Cc4ccc(Cl)cc4)c(=O)c23)CO1`, the fold increase in Dox EC50 is 0.85 (inactive) and the pEC50 is 5.34.
As for `CCc1nnc(NC(=O)C2CCCN2S(=O)(=O)c2ccc(C)cc2)s1` (centres undefined), the fold increase in Dox EC50 was 1.04 (inactive) and the pEC50 was 5.25.
`COc1ccc(OC)c(-c2cc(C(=O)Nc3c(C)nn(Cc4ccccc4Cl)c3C)no2)c1`: the fold increase in Dox EC50 is 0.55 (inactive) and the pEC50 is 5.52.
Regarding `O=C(CCCCl)NC1=NN(c2ccccc2)C(=O)C1`, the fold increase in Dox EC50 was 1.56 and the pEC50 is 5.07.
Take `COc1ccc(C2C(C(=O)Nc3cccc(C)n3)CCC(=O)N2c2ccc(OC)cc2)cc1` (centres undefined): the fold increase in Dox EC50 is 0.64 (inactive) and the pEC50 is 5.46.
On to `C/C(=N\NC(=O)CCc1c[nH]c2ccccc12)c1cccc([N+](=O)[O-])c1`, for which the fold increase in Dox EC50 was 0.8 (inactive) and the pEC50 is 5.36.
With `C[C@H](C(=O)C=[N+]=[N-])N1C(=O)c2ccccc2C1=O`, the fold increase in Dox EC50 was 0.56 (inactive) and the pEC50 was 5.52.
`Cc1ccc(S(=O)(=O)N/N=C\c2cn(-c3ccccc3)nc2-c2ccccc2)cc1`: the fold increase in Dox EC50 was 1.38 (inactive) and the pEC50 was 5.13.
For `CC(C)Oc1ccc(CSC(=N)N)cc1`, the fold increase in Dox EC50 was 0.89 (inactive) and the pEC50 was 5.32.
In the case of `COc1ccc(C(=O)Nc2ccccc2Cc2ccccc2)c(OC)c1`, the fold increase in Dox EC50 was 0.66 (inactive) and the pEC50 was 5.45.
As for `Cc1ccc(C(c2nnnn2CS(=O)(=O)c2ccc(C)cc2)N2CCN(c3ncccn3)CC2)cc1` (centres undefined), the fold increase in Dox EC50 is 0.48 (inactive) and the pEC50 was 5.59.
For the molecule `CCOC(=O)c1c(-c2cccc([N+](=O)[O-])c2)csc1NC(=O)C1CCCCC1`, the fold increase in Dox EC50 is 0.34 (inactive) and the negative-log EC50 (pEC50) is 5.74.
In the case of `C/C(=N\NC(=O)c1cccc(S(=O)(=O)Nc2cccc(Cl)c2)c1)c1cccs1`, the fold increase in Dox EC50 was 0.65 (inactive) and the pEC50 was 5.46.
The matching figures for `O=C(Nc1nc(COc2ccccc2)cs1)c1ccccc1F`: 1.76 and 5.02.
On to `COc1ccc(-n2c(C)nc(=O)c(-c3ccccc3)c2C)cc1`, for which the fold increase in Dox EC50 was 0.83 (inactive) and the pEC50 was 5.35.
Regarding `CCc1nnc(NC(=O)[C@@H](NC(=O)c2cccc(S(=O)(=O)N(CC)CC)c2)C(C)C)s1`, the fold increase in Dox EC50 is 0.4 (inactive) and the pEC50 is 5.66.
For `Nc1nc2n(n1)C(c1cccs1)CC(c1ccc(Br)cc1)N2` (centres undefined) the same measures were 0.91 (inactive) and 5.31.
`COc1ccc(NS(=O)(=O)c2cc(NC(=O)CNC(=O)c3ccc(C)s3)ccc2Cl)cc1`: the fold increase in Dox EC50 is 1.44 (inactive) and the pEC50 was 5.11.
Turning to `O=C(/C=C/c1ccc([N+](=O)[O-])cc1)N1CCN(c2ccccc2F)CC1`, the fold increase in Dox EC50 was 0.56 (inactive) and the pEC50 is 5.52.
As to `Cc1ccc(C)c(/C(O)=C2\C(=O)C(=O)N(CCCn3ccnc3)C2c2ccncc2)c1` (centres undefined), the fold increase in Dox EC50 is 1.17 (inactive) and the pEC50 is 5.20.
For `CNC(=S)Nc1ccc(C)cc1`, the fold increase in Dox EC50 was 0.67 (inactive) and the pEC50 is 5.44.
Regarding `Cc1nc(=O)c(-c2ccccc2)c(C)n1-c1ccc(C(=O)O)cc1`, the fold increase in Dox EC50 is 1.3 (inactive) and the pEC50 is 5.15.
With `CC(=O)c1ccc(NC(=O)CCCN2C(=O)/C(=C/C(C)=C/c3ccccc3)SC2=S)cc1`, the fold increase in Dox EC50 was 0.19 (inactive) and the pEC50 is 6.00.
With `Cc1cc(=O)oc2c1ccc1oc(/C(=N/O)c3ccccc3)c(C)c12`, the fold increase in Dox EC50 was 1.3 (inactive) and the pEC50 was 5.15.
For the molecule `O=C(CCN1C(=O)/C(=C\c2ccccc2)SC1=S)NNC(=O)c1cccnc1`, the fold increase in Dox EC50 is 1.2 (inactive) and the pEC50 was 5.19.
In the case of `c1ccc(-c2ccc(-c3nc(-c4ccncc4)no3)cc2)cc1`, the fold increase in Dox EC50 was 0.41 (inactive) and the pEC50 was 5.66.
As to `CCn1c(COc2ccc(Cl)cc2)nnc1SCc1nc2ccccc2[nH]1`, the fold increase in Dox EC50 is 0.35 (inactive) and the pEC50 was 5.73.
The matching figures for `CCOC(=O)Cc1csc(NC(=O)c2c(-c3ccccc3)noc2C)n1`: 0.44 (inactive) and 5.62.
In the case of `O=[N+]([O-])c1ccc(O)c(N=Cc2sc3ccccc3c2O)c1`, the fold increase in Dox EC50 was 0.08 (inactive) and the pEC50 is 6.34.
For the molecule `COc1cc(S(=O)(=O)Nc2cccc(C)c2)ccc1NC(=O)c1ccncc1`, the fold increase in Dox EC50 was 0.6 (inactive) and the pEC50 was 5.49.
